Data as given in publication PMC12373995 (Nature Communications, 2025).
Peptide text beside a SMILES is read from it. * marks the point of attachment. Cbz = O=C(OCc1ccccc1)*

Assays:
[1] = test system: Tamoxifen-resistant patient-derived organoids (PDOs); experiment: Organoid live/dead staining; type: cell-based, human; settings: PDO
PARP and Bcl-2 = PARP and Bcl-2 by western blot, LCC2; type: cell-based, human; settings: LCC2, 50 or 100 nM, 48 h
ESR1 mRNA [2] = experiment: Real-time PCR of ESR1 mRNA, MCF-7; type: cell-based, human; settings: MCF-7, Supplementary Fig. 1a
[3] = test system: ERα transcriptional activity (ERE); experiment: ERE-luciferase assay, MCF-7; type: cell-based, human; settings: Fig. 3i, MCF-7 and T47D
[4] = test system: Tamoxifen-resistant cells LCC2; experiment: CCK-8 cell viability, LCC2; type: cell-based, human; settings: LCC2, Fig. 7h, i
[5] = Serum markers of liver and kidney function in tumor-bearing mice; type: in vivo; settings: therapeutic doses
ESR1 mRNA [6] = experiment: Real-time PCR of ESR1 mRNA, T47D; type: cell-based, human; settings: Supplementary Fig. 1b
LCC2 xenografts = experiment: Tamoxifen-resistant LCC2 xenografts in nude mice; type: in vivo
MCF-7 cells = experiment: CCK-8 cell viability, MCF-7; type: cell-based, human; settings: MCF-7 and T47D, Supplementary Fig. 1e–g
ERα = biological target: T1, ERα (Homo sapiens, UniProt P03372); type: cell-based; settings: MCF-7 and T47D, with Bufalin
T1 sequence (P03372 1-595): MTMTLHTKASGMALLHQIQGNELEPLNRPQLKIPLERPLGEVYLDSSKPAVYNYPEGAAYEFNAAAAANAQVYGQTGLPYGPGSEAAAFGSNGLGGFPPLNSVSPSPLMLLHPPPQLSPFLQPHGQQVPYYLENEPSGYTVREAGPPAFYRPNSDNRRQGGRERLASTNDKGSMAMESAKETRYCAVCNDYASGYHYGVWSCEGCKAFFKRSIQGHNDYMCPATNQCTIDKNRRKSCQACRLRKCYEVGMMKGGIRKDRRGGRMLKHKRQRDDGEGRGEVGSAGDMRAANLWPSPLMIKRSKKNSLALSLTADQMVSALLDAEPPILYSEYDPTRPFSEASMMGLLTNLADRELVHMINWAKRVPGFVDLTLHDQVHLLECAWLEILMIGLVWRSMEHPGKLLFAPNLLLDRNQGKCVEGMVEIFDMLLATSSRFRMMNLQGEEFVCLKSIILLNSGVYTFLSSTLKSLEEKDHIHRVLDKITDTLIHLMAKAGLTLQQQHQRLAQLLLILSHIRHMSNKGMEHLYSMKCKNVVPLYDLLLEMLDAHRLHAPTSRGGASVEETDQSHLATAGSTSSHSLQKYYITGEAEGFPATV

Row | SMILES | Cell death by Calcein-AM/PI staining [1] | Apoptosis markers PARP and Bcl-2 (PARP and Bcl-2) | mRNA of ERα (ESR1 mRNA [2]) | Transcriptional activity of ERα (ERE luciferase) [3] | Anti-cancer effects compared with Fulvestrant [4] | Toxicity by serum liver and kidney markers [5] | mRNA of ERα (ESR1 mRNA [6]) | ERα protein expression in tumors (LCC2 xenografts; IHC and western blot) | Anti-tumor activity compared with Fulvestrant (LCC2 xenografts; LCC2 xenografts) | Ki67 in tumors (IHC) (LCC2 xenografts; LCC2 xenografts) | Tumor volumes and weights (LCC2 xenografts; intraperitoneal injection) | Anti-cancer effects compared with Fulvestrant (MCF-7 cells) | Effect of co-treatment on Bufalin-induced ERα decrease (ERα)
1 | C[C@]12CC[C@H](O)C[C@H]1CC[C@@H]1[C@@H]2CC[C@]2(C)[C@@H](c3ccc(=O)oc3)CC[C@]12O [Bufalin] | extensive cell death | PARP cleavage, and Bcl-2 downregulation | no obvious change | weakened the transcriptional activity of ERα | better anti-cancer effects than Fulvestrant | no significant signs of drug-induced toxicity | no obvious change | the protein expression of ERα was decreased | superior anti-tumor activity to Fulvestrant | marked Ki67 suppression | the tumor volumes and weights significantly decreased | stronger anti-cancer effects than Fulvestrant | 
2 | CC(C)C[C@@H](C=O)NC(=O)[C@H](CC(C)C)NC(=O)[C@H](CC(C)C)NC(=O)OCc1ccccc1 [MG-132] (Cbz-Leu-Leu-Leu-aldehyde) |  |  |  |  |  |  |  |  |  |  |  |  | effectively prevented the Bufalin-induced decrease in ERα protein levels
3 | NS(=O)(=O)OC[C@@H]1C[C@@H](n2ccc3c(N[C@H]4CCc5ccccc54)ncnc32)C[C@@H]1O [MLN4924] |  |  |  |  |  |  |  |  |  |  |  |  | reversed the Bufalin-mediated downregulation of ERα
